Here are results for eleven compounds from ChEMBL document CHEMBL1201862, “PubChem BioAssay data set” (2004).

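Results reflect a 48-hour exposure of cells in 96-well plates to compound at five concentrations. The concentration for 50% growth inhibition is given as GI50.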 The source made the active and inactive calls. Cut-off read from the data, not from the text of the source: active = GI50 up to about 1.1 µM and inactive = higher.

Some test systems named below: HCT-15; UACC-62; SN12C; LOX IMVI; UACC-257; NCI-H226; U-251; CCRF-CEM; M14; SNB-19; HOP-62; Malme-3M; 786-0; SNB-75; OVCAR-8; ACHN; SF-539; SW-620; Hs-578T; MDA-N.
Holding throughout (test): DTP human tumour cell line panel, 48 h

In general, GI50 refers to the concentration that inhibits growth by half.

As for `C/C(=C\COP(=O)(O)OP(=O)(O)O)CCCCCCOCc1ccccc1`, the concentration for 50% growth inhibition (GI50) with HCT-15 is greater than 100 µM; in the experiment on UACC-62, > 100 µM (inactive); in the experiment on SN12C it was > 100 µM (inactive); in the experiment on LOX IMVI, > 100 µM (inactive); with UACC-257, > 100 µM (inactive); in the experiment on NCI-H226, > 100 µM (inactive). Also, the GI50 in the experiment with U-251, in the experiment with CCRF-CEM, with M14, in the experiment with SNB-19, in the experiment with HOP-62 and with Malme-3M was > 100 µM (inactive) in each case. Besides, the GI50 with 786-0, with SNB-75, in the experiment with OVCAR-8, with ACHN, in the experiment with SF-539 and with SW-620 was > 100 µM (inactive) in each case. In addition, the GI50 with Hs-578T was > 100 µM (inactive).

On to `COc1cccc(Nc2nc(-c3cccs3)nc3cc(OC)c(OC)cc23)c1`, for which the GI50 in the experiment on HCT-15 is 26.6 µM; in the experiment on UACC-62 it was 19.1 µM (inactive); in the experiment with SN12C it was 21.3 µM (inactive); in the experiment with UACC-257, 36.8 µM (inactive); in the experiment with NCI-H226, 37.6 µM (inactive); in the experiment on U-251 it was 23.8 µM (inactive). Moreover, the GI50 in the experiment on M14 was 35.2 µM (inactive); in the experiment with SNB-19, 28.4 µM (inactive); in the experiment on HOP-62, 27.8 µM (inactive); with Malme-3M, 68.9 µM (inactive); with 786-0, 21.9 µM (inactive); in the experiment on SNB-75 it was 32.8 µM (inactive). In addition, the GI50 was 23.9 µM (inactive) in the experiment with OVCAR-8; 21.6 µM (inactive) in the experiment on ACHN; 20.9 µM (inactive) with SF-539; 29 µM (inactive) with SW-620; 27.4 µM (inactive) in the experiment on Hs-578T.

Take `C[N+](C)=C/C=C(\Cl)c1ccc2ccccc2c1`: the GI50 with HCT-15 is 2.62 µM; in the experiment on UACC-62 it was 15.1 µM (inactive); with SN12C, 19.1 µM (inactive); in the experiment on LOX IMVI, 4.33 µM (inactive); in the experiment on UACC-257, 12.2 µM (inactive); in the experiment with NCI-H226 it was 17.3 µM (inactive). Also, the GI50 was 11.4 µM (inactive) in the experiment with U-251; 1.66 µM (inactive) in the experiment with CCRF-CEM; 6.62 µM (inactive) with M14; 21.7 µM (inactive) with SNB-19; 17.8 µM (inactive) in the experiment with HOP-62; 11.8 µM (inactive) in the experiment with Malme-3M. Also, the GI50 in the experiment with 786-0 was 13.1 µM (inactive); in the experiment with SNB-75, 21.5 µM (inactive); in the experiment with OVCAR-8, 9.66 µM (inactive); in the experiment with ACHN, 14 µM (inactive); in the experiment with SF-539, 25.1 µM (inactive); with SW-620 it was 4.29 µM (inactive). In addition, the GI50 in the experiment with Hs-578T was 32.4 µM (inactive).

Consider `CCOC(=O)c1cc(I)c(-c2cc(C)no2)n1C`, for which the GI50 was 49.9 µM in the experiment with HCT-15; 59 µM (inactive) in the experiment with UACC-62; 43.9 µM (inactive) with MDA-N; 21.5 µM (inactive) in the experiment on SN12C; 37.3 µM (inactive) in the experiment with LOX IMVI; 71.6 µM (inactive) in the experiment with UACC-257. The GI50 in the experiment on NCI-H226 was > 100 µM (inactive); in the experiment with U-251, 60.5 µM (inactive); in the experiment with CCRF-CEM, 27.9 µM (inactive); with M14, 94 µM (inactive); in the experiment on SNB-19 it was > 100 µM (inactive); in the experiment with Malme-3M, 28.1 µM (inactive). Also, the GI50 in the experiment with 786-0 is 43.5 µM (inactive); in the experiment with SNB-75, 49.8 µM (inactive); with OVCAR-8, 59 µM (inactive); with ACHN, 48.3 µM (inactive); in the experiment with SF-539, > 100 µM (inactive); in the experiment on SW-620 it was 60.7 µM (inactive).

Consider `COc1cc(/C=C/C(=O)c2ccc(NS(=O)(=O)c3cc([N+](=O)[O-])ccc3C)cc2)cc(OC)c1OC`, for which the GI50 is 3.04 µM in the experiment with HCT-15; 3.62 µM (inactive) with MDA-N; 1.87 µM (inactive) in the experiment on SN12C; 3.29 µM (inactive) with LOX IMVI; 7.53 µM (inactive) with UACC-257; 2.97 µM (inactive) in the experiment with NCI-H226. Moreover, the GI50 in the experiment with U-251 is 3.37 µM (inactive); with CCRF-CEM it was 2.2 µM (inactive); in the experiment on M14, 2.99 µM (inactive); with SNB-19, 3.85 µM (inactive); with HOP-62 it was 2.99 µM (inactive); with 786-0 it was 2.74 µM (inactive). Also, the GI50 was 4.39 µM (inactive) in the experiment with SNB-75; 2.49 µM (inactive) with OVCAR-8; 4.38 µM (inactive) with ACHN; 2.18 µM (inactive) in the experiment with SF-539; 4.49 µM (inactive) in the experiment on SW-620.

On to `COc1ccc(C[C@@H](C(=O)O[C@H](C)[C@H](NC(=O)[C@@H](CC(C)C)N(C)C(=O)C2CCCN2C(=O)[C@H](C)O)C(=O)N2CCCCNC(=O)[C@@H](C)C(=O)[C@H](C(C)C)OC(=O)C[C@H](O)[C@H]2CC(C)C)N(C)C(C)=O)cc1` (stereo partly drawn), for which the GI50 in the experiment with HCT-15 was 16 µM; in the experiment with UACC-62, 3.71 µM (inactive); in the experiment on SN12C it was 15.2 µM (inactive); in the experiment with UACC-257 it was 17.5 µM (inactive); in the experiment on NCI-H226 it was 11.7 µM (inactive); with U-251, 3.1 µM (inactive). Also, the GI50 with CCRF-CEM was 8.61 µM (inactive); in the experiment on M14 it was 9.08 µM (inactive); in the experiment on SNB-19, 10.6 µM (inactive); in the experiment on HOP-62, 13.4 µM (inactive); in the experiment with Malme-3M, 10.2 µM (inactive); in the experiment with 786-0 it was 12.4 µM (inactive). In addition, the GI50 in the experiment on SNB-75 is 9.84 µM (inactive); with OVCAR-8, 18.9 µM (inactive); in the experiment on ACHN it was 12.6 µM (inactive); with SF-539, 5.18 µM (inactive); in the experiment on SW-620, 5.85 µM (inactive); with Hs-578T, 4.11 µM (inactive).

On to `Cc1cc2c(cc1Cl)SC(NNCCO)=NS2(=O)=O`, for which the GI50 was greater than 100 µM with HCT-15; 97.7 µM (inactive) in the experiment with UACC-62; > 100 µM (inactive) in the experiment with LOX IMVI; > 100 µM (inactive) in the experiment with UACC-257; > 100 µM (inactive) in the experiment on NCI-H226; > 100 µM (inactive) in the experiment with U-251. The GI50 with CCRF-CEM, in the experiment on M14, in the experiment with SNB-19, in the experiment with HOP-62, with 786-0 and in the experiment with SNB-75 was > 100 µM (inactive) throughout. For the same compound, the GI50 in the experiment with OVCAR-8, in the experiment on ACHN, in the experiment with SF-539, with SW-620 and in the experiment on Hs-578T was > 100 µM (inactive) each time.

On to `Nc1nc(Nc2ccccc2)c2[nH]cnc2n1`, for which the GI50 in the experiment with HCT-15 was 52 µM; in the experiment with UACC-62, 33.3 µM (inactive); in the experiment with MDA-N it was 47.8 µM (inactive); with SN12C, > 100 µM (inactive); in the experiment with LOX IMVI it was 77.6 µM (inactive); in the experiment on UACC-257, > 100 µM (inactive). Besides, the GI50 is 40.6 µM (inactive) in the experiment on NCI-H226; > 100 µM (inactive) with U-251; 50.7 µM (inactive) with CCRF-CEM; > 100 µM (inactive) with M14; > 100 µM (inactive) in the experiment on SNB-19; > 100 µM (inactive) in the experiment with HOP-62. Also, the GI50 is 30.6 µM (inactive) with Malme-3M; > 100 µM (inactive) with 786-0; 9.57 µM (inactive) with SNB-75; > 100 µM (inactive) with OVCAR-8; 41.9 µM (inactive) with ACHN; > 100 µM (inactive) with SF-539. Further, in the experiment on SW-620, the GI50 is > 100 µM (inactive).

As for `Oc1ccc(/C=N/NC(=S)Nc2cccnc2)nc1`, the GI50 in the experiment on HCT-15 was 5.27 µM; with UACC-62, 6.97 µM (inactive); in the experiment with MDA-N, 13.4 µM (inactive); with SN12C, 6.93 µM (inactive); with LOX IMVI it was 3.26 µM (inactive); with UACC-257 it was 13.7 µM (inactive). The GI50 in the experiment on NCI-H226 is 33.3 µM (inactive); in the experiment on U-251, 6.22 µM (inactive); in the experiment on CCRF-CEM, 3.27 µM (inactive); in the experiment with M14, 6.1 µM (inactive); with SNB-19, 22.7 µM (inactive); in the experiment on HOP-62 it was 12 µM (inactive). Also, the GI50 is 2.07 µM (inactive) in the experiment on Malme-3M; 8.43 µM (inactive) in the experiment with 786-0; 19.6 µM (inactive) in the experiment on SNB-75; 2.79 µM (inactive) in the experiment with OVCAR-8; 4.76 µM (inactive) in the experiment on ACHN; 4.49 µM (inactive) with SF-539. Besides, the GI50 in the experiment with SW-620 was 4.82 µM (inactive).

On to `Cc1cc(C)n2c(nc3ccccc32)c1C#N`, for which the GI50 with HCT-15 is greater than 100 µM; in the experiment on UACC-62, > 100 µM (inactive); in the experiment with MDA-N, > 100 µM (inactive); in the experiment with SN12C it was > 100 µM (inactive); with LOX IMVI, > 100 µM (inactive); with UACC-257 it was > 100 µM (inactive). In addition, the GI50 in the experiment with NCI-H226, with U-251, in the experiment on CCRF-CEM, in the experiment on M14, with SNB-19 and in the experiment on Malme-3M was > 100 µM (inactive) each time. The GI50 with 786-0, in the experiment on OVCAR-8, in the experiment on ACHN, in the experiment with SF-539 and in the experiment with SW-620 was > 100 µM (inactive) each time.

As for `COc1ccc(O)c(C(=O)CCC(=O)O)c1`, the GI50 with HCT-15 was greater than 100 µM; in the experiment on UACC-62 it was > 100 µM (inactive); in the experiment on SN12C it was > 100 µM (inactive); with LOX IMVI, > 100 µM (inactive); with UACC-257, 15.6 µM (inactive); with NCI-H226 it was > 100 µM (inactive). In addition, the GI50 is > 100 µM (inactive) in the experiment on U-251; > 100 µM (inactive) in the experiment on CCRF-CEM; > 10 µM (inactive) with M14; > 100 µM (inactive) in the experiment with SNB-19; > 10 µM (inactive) in the experiment on HOP-62; > 100 µM (inactive) in the experiment on Malme-3M. In addition, the GI50 with 786-0, in the experiment with SNB-75, in the experiment with OVCAR-8, in the experiment with ACHN, with SF-539 and in the experiment on SW-620 was > 100 µM (inactive) in each case.
